“Also recorded” adds a separate entry of the source.
Experiments:
[1] = tested on: glioma-initiating cells (TGS-01, TGS-04); assay: Sphere formation assay; assay type: cell-based, human
Method: GICs were cultivated for seven days using a non-tissue-culture-treated-flask with vent cap (BD Bioscience). The floating spheres were counted for each sample within five fields of vision under a microscope.
To clarify the role of TGF-β signals in glioma-initiating cells, first the effects due to TGF-β signal inhibition were examined. A sphere formation ability assay was implemented in the presence of either TGF-β or a TGF-β inhibitor (SB431542, 1 μM).
SB431542 can inhibit not only the TGF-β type I receptor (ALK5), but also activin/nodal type I receptor signals, so to identify the role of TGF-β signals, the effects of a TGF-β receptor II/Fc chimera on glioma-initiating cells were examined. The glioma-initiating cells were separated into single cells, and a sphere assay implemented in the presence of either human TGF-βRII/Fc chimera (1 μg/mL), or IgG1Fc (1 μg/mL) as a control.

[2] = tested on: CD133-positive cells in glioma spheres; assay: Flow cytometry of CD133-positive cells; assay type: cell-based, human
Method: The cells were separated into single cells, and marked using phycoerythrin marker CD133 antibodies. The expression levels were measured using EXPO32 ADC software through a Beckman C EPICS XL flow cytometer.
(§1) Next, the effects of TGF-β (100 μM) or SB431542 (1 μM) were examined using flow cytometry. In the presence of TGF-β inhibitors, the percentage of CD133-positive cells in the glioma spheres was reduced. (See FIG. 3A.) Further, to examine the expression of neural precursor cell markers or neural cell differentiation markers in the glioma spheres, the spheres (TGS-01) were separated into single serum-free culture, and seeded on glass slides that had been coded using poly-L-ornithine (Sigma) and fibronectin (Sigma), and were then cultured for seven days together with TGF-β (100 μM) or the inhibitor SB431542 (1 μM). The cells were fixed using 3.7% paraformaldehyde, and the cell membrane was made permeable using 0.3% Triton […] including PBS, and incubated together with antibodies before immunostaining was implemented.

[3] = tested on: Nestin, Musashi, GFAP, Tuj1 positive glioma-initiating cells; assay: Immunostaining of neural precursor and differentiation markers; assay type: cell-based, human
Method: Glioma-initiating cells (GICs) were seeded on glass slides that had been coded using poly-L-ornithine (Sigma) and fibronectin (Sigma), and were then cultured for seven days together with various ligands or inhibitors in serum-free culture. The cells were fixed using 3.7% paraformaldehyde, and then the cell membrane was made permeable using 0.3% Triton […] including PBS, and incubated together with various antibodies.
as §1

Sox2 mRNA = Sox2 mRNA expression by quantitative real-time PCR; assay type: cell-based, human
Method: (§2) Quantitative real-time PCR was implemented according to the method by Ikushima et al. (EMBO J. 2008, 27: 2955-2965). All samples were implemented in triplicate. The data was normalized using glyceraldehyde 3-phosphate dehydrogenase (GAPDH).
In addition, siRNA (siSMAD2 and siSMAD3) were transfected to SMAD2 and SMAD3 in TGS-01 cells, and incubated for 24 hours, and then processed for TGF-β (100 μM), and the expression levels measured. […] (See FIG. 4B).
The induction of Sox2 expression by TGF-β was observed 24 hours after stimulation, but not observed after three hours. (See FIG. 4A.) Further, the effects of TGF-β on Sox2 expression in the presence of cycloheximide, which is a protein synthesis inhibitor, were examined. TGF-β (100 μM) processing was implemented for 24 hours, and after processing the TGF-β for 30 minutes, the cycloheximide processing was started, and the Sox2 expression levels were measured. In the presence of cycloheximide, which is a protein synthesis inhibitor, the induction of Sox2 expression was reduced. From these facts, it is thought that Sox2 expression is not induced directly by TGF-β, but rather, that it is controlled by other factors that are induced by TGF-β.

Sox2 protein = Sox2 protein level by immunoblotting; assay type: cell-based, human; settings: 24-hour processing; TGF-β 100 μM or SB431542 1 μM
Method: The cells were dissolved in a buffer including 1% Nonidet P-40, 20 mM Tris-hydrochloride (pH7.4), 150 mM sodium chloride, 1 mM PMSF, 1% aprotinin, and 5 mM EDTA. The proteins refined from the cytolized product was supplied to SDS-PAGE, and transferred to a Fluoro Trans W Membrane (Pall). Immunoblotting was implemented using various types of antibodies.
Moreover, it was also verified that the 24-hour processing using TGF-β (100 μM) or SB431542 (1 μM) suppressed the expression of Sox2 protein levels. (See FIG. 4C.) In the diagram, α-tubulin is the loading control.

Sox4 mRNA = Sox4 mRNA expression by quantitative real-time PCR; assay type: cell-based, human; settings: for Sox4 mRNA expression: TGS-01 and TGS-04, three hours and 24 hours, TGF-β 100 μM or SB431542 1 μM
From the text: as §2

[4] = tested on: SMAD complexes binding to Sox4 promoters; assay: Chromatin immunoprecipitation with SMAD2 and SMAD3 antibodies; assay type: cell-based, human; settings: TGS-01; 1.5 hours; TGF-β 100 μM or SB431542 1 μM
Method: (§3) Chromatin immunoprecipitation was implemented using the method described by Koinuma et al. (Molecular and Cellular Biology, 2009, 29:172-186, 10.1128/MCB, 01038-08). After reverse cross-linking, the DNA was processed using proteinase K, and refined using a PCR purification kit (Qiagen). The DNA was eluted into 30 μL of TE, and used in either PCR or quantitative real-time PCR. The primers used in the PCR are as described below.
To verify that Sox4 is a direct TGF-β marker, chromatin immunoprecipitation assay was implemented using antibodies to SMAD2 and SMAD3, which are DNA binding signal mediators for the TGF-β signals. Specifically, TGS-01 cells were processed for 1.5 hours using either TGF-β (100 μM), or SB431542 (1 μM), and the eluted DNA was supplied for either real-time PCR or RT-PCR. In real-time PCR, the measured values were normalized using the first introns of hypoxanthine phosphoribosyltransferase (HPRT). […] (See FIG. 6F.)

[5] = tested on: Sox4 recruitment to the Sox2 enhancer region; assay: Chromatin immunoprecipitation with Sox4 antibodies; assay type: cell-based, human; settings: TGS-01; 24 hours; TGF-β 100 μM or SB431542 1 μM
Method: as §3
To verify that this control is direct, chromatin immunoprecipitation assay was implemented using Sox4 antibodies. It has previously been reported that the enhancer region located in the Sox2 gen 3′ flanking region is important for controlling Sox2 expression. (Chew et al., Molecular and Cellular Biology, 2005, 25:6031-6046; Tomioka et al., Nucleic Acids Research, 2002, 30: 3202-3213.) This region includes the consensus binding motif CATTGTA to Sox4. […]
Here, TGS-01 cells were processed for 24 hours using either TGF-β (100 μM), or SB431542 (1 μM), and the eluted DNA analyzed using quantitative real-time PCR. The measured values were normalized using HPRT first intron quantities. […] Further, to examine the effects of Sox4 knockdown on sox2 expression induction by TGF-β, siRNA was stained, and after for 24 hours, was processed for a further 24 hours using TGF-β (100 μM), and the Sox2 mRNA expression levels measured using real-time PCR. […]

[6] = tested on: Oct-4, NANOG, and LIF expression; assay: Expression of stem cell markers Oct-4, NANOG, LIF; assay type: cell-based, human
From the text: as §2
(See FIG. 14.) Further, it has been reported that NANOG and LIF are induced in many cells by stimulating TGF-β. (Xu et al., Cell Stem Cell, 2008, 3: 206; Bruna et al., Cancer Cell, 2007, 11: 147-160.)

[7] = tested on: TGS-01 cells transplanted intracranially; assay: Intracranial proliferation assay; assay type: in vivo, BALB/c nu/nu mice
Method: Glioma-initiating cells (living cells […] in 5 μL of DMEM/F12 culture) were injected stereotaxically at a depth of 3 mm into the right cerebral hemisphere of five-week-old female BALB/c nu/nu mice. All animal testing was implemented according to the policies of the University of Tokyo animal testing committee.
Specifically, adenovirus-Sox4 or adenovirus-LacZ staining was implemented, and 5×10^4 TGS-01 cells either unprocessed or after 24 hours processing using a TGF-β inhibitor were transplanted intracranially. TGF-β is well-known to promote glioma cell proliferation, so to classify the results into effects on growth and effects in differentiation, SB431542 processing was implemented as pre-processing and not implemented continuously. Six mice were used for each condition, and evaluated using Kaplan-Meier analysis. The p values were determined using the long-rank test. […] Further, the results of histological analysis of the samples dissected 30 days after intracranial transplant are shown in FIG. 11 (Right). Tissue sections were stained using hematoxylin and eosin (HE).

[8] = 24 hours after processing, TGF-β 100 μM or SB431542 1 μg (so in the source)
[9] = cells pre-processed with SB431542, 30 days after intracranial transplant

TGF-β
sphere formation ability ([1]; adding TGF-β): did not greatly influence | CD133-positive ratio ([2]; adding TGF-β (100 μM [sic])): did not greatly influence | marker expression ([3]; adding TGF-β (100 μM [sic]), seven days): did not greatly influence | expression of Sox2 mRNA (Sox2 mRNA; [8]): induced; also recorded: observed | induction of Sox2 expression (Sox2 mRNA; three hours after TGF-β stimulation): not observed | expression of Sox2 protein levels (Sox2 protein): suppressed | Sox4 mRNA expression (Sox4 mRNA): induced | binding of SMAD complexes to Sox4 promoters [4]: bound directly | Sox4 recruitment to the Sox2 enhancer region [5]: increased | LIF expression ([6]; TGS-01 or TGS-04 cells, TGF-β signals): did not induce | expression of Oct-4, NANOG, and LIF ([6]; processing using TGF-β or an inhibitor): not greatly affected

NC(=O)c1ccc(-c2nc(-c3ccc4c(c3)OCO4)c(-c3ccccn3)[nH]2)cc1 [SB431542]
sphere formation ability of glioma-initiating cells ([1]; SB431542 1 μM, seven days culture): conspicuously reduced | spherical growth pattern of spheres that had once formed ([1]; SB431542 added to formed spheres): became adhesion cells | sphere formation ability ([1]; TGS-01 over-expressing Sox4 (adenovirus-Sox4 vs adenovirus-LacZ), SB431542 1 μM, seven days): fall in sphere formation ability was alleviated | sphere formation abilities ([1]; glioma-initiating cells over-expressing Sox2, compared to LacZ over-expressing cells): reduced only slightly | percentage of CD133-positive cells in the glioma spheres ([2]; SB431542 1 μM): reduced | percentages of Nestin-positive cells and GFAP-positive cells ([3]; TGS-01 over-expressing Sox4, SB431542, seven days): no major changes | percentage of GFAP-positive cells ([3]; cells over-expressing Sox2): did not increase | percentage of Nestin-positive cells ([3]; cells over-expressing Sox2): did not fall | expression of Sox2 mRNA (Sox2 mRNA; [8]): suppressed | expression of Sox2 mRNA (Sox2 mRNA; subsequently for seven days, SB431542 1 μg (so in the source)): low expression level continued | expression of Sox2 protein levels (Sox2 protein): suppressed | Sox4 mRNA expression (Sox4 mRNA): down-regulated | binding of SMAD complexes to Sox4 promoters [4]: clearly controlled | Sox4 recruitment to the Sox2 enhancer region [5]: clearly reduced | survival period of the mice ([7]; TGS-01 (adenovirus-LacZ) pre-processed 24 hours with SB431542 vs unprocessed control, Kaplan-Meier): significantly longer | neurological symptoms [7, 9]: did not show any neurological symptoms | tumors on pathological examination using HE staining [7, 9]: did not reveal any tumors | extension of survival periods ([7]; glioma-initiating cells over-expressing Sox4, pre-processed with SB431542): did not shown any effects

CC1=C2C[C@H]3[C@@H](CC=C4C[C@@H](O)CC[C@@]43C)[C@@H]2CC[C@]12O[C@@H]1C[C@H](C)CN[C@H]1[C@H]2C [cyclopamine]
effects on sphere formation compared with SB431542 ([1]; TGS-01, cyclopamine 2.5, 5, 10 μM vs SB431542 1 μM): smaller than those of SB431542 | effect on sphere formation of the two drugs combined ([1]; TGS-01, cyclopamine combined with SB431542 1 μM): no additional or synergistic effect | sphere formation ability of TGS-01 cells ([1]; cyclopamine 2.5, 5, and 10 μM, seven days): reduced

C[C@@H]1C[C@@H]([C@H](O)CC2CC(=O)NC(=O)C2)C(=O)[C@@H](C)C1 [cycloheximide]
induction of Sox2 expression by TGF-β in the presence of cycloheximide (Sox2 mRNA; TGF-β 100 μM (so in the source) 24 hours, cycloheximide started after 30 minutes): reduced | Sox4 induction by TGF-β in the presence of cycloheximide (Sox4 mRNA): not influenced

B1: TGF-βRII/Fc: human TGF-β receptor II/Fc chimera (protein)
chain: TIPPHVQKSVNNDMIVTDNNGAVKFPQLCKFCDVRFSTCDNQKSCMSNCSITSICEKPQEVCVAVWRKNDENITLETVCHDPKLPYHDFILEDAASPKCIMKEKKKPGETFFMCSCSSDECNDNIIFSEEYNTSNPD
modifications: left off: a dimerising Fc or GST
notes: human TGF-β receptor II/Fc chimera
efficiency in forming spheres ([1]; human TGF-βRII/Fc chimera 1 μg/mL, IgG1Fc 1 μg/mL as control): low

Source: patent publication US20120039808A1, “Brain Tumor Stem Cell Differentiation Promoter, and Therapeutic Agent for Brain Tumor” (The University of Tokyo, priority 2009, published 2012)
